The values below are quoted from earlier work in PMC7692329, “Inhibitory Effect of AB-PINACA, Indazole Carboxamide Synthetic Cannabinoid, on Human Major Drug-Metabolizing Enzymes and Transporters” (Pharmaceutics, 2020).

Where two headings read alike, the source gives them in different places.

The subject of one series is CYP2B6. To be noted: read-out: Ki, CYP2B6; cited from earlier work.
In another series the test system is CYP2C8. As to conditions: cited from earlier work.
The subject of a further series is CYP2C9. As to conditions: cited from earlier work.
The next series has as its system CYP2C19. As to conditions: cited from earlier work.
The subject of another series is CYP2D6. To be noted: read-out: Ki, CYP2D6; cited from earlier work.
A further series has as its system CYP3A4. To be noted: cited from earlier work.
The conditions of series [1]: child, chewing an AB-PINACA contaminated cigarette; cited from earlier work.
The subject of a further series is UGT1A3. As to conditions: cited from earlier work.
In another series the test system is UGT2B7. Further details: method as in PMID 28287454. As to conditions: cited from earlier work.
Series [2] deals with OCT1/2, OAT1/3, and OATP1B1/1B3. Set-up: method as in PMID 31430908. To be noted: cited from earlier work.
In another series the test system is UGT1A9. To be noted: read-out: Ki, UGT1A9; noncompetitive inhibition; cited from earlier work.
The next series deals with CES1. Further details: method as in PMID 25346527. To be noted: 100 μM benzil, human liver microsomes; cited from earlier work.
[3] abbreviates: read-out: Ki, CYP3A4 (time-dependent), time-dependent inhibition.

As to `CC(C)C(NC(=O)c1nn(Cc2ccc(F)cc2)c2ccccc12)C(N)=O` (stereo not shown) [AB-FUBINACA, N-(1-amino-3-methyl-1-oxobutan-2-yl)-1-(4-fluorobenzyl)-1H-indazole-3-carboxamide], the Ki in the series with CYP2B6 is 15 µM; in the series with CYP2C8 (read-out: Ki, CYP2C8) it was 19.9 µM; in the series with CYP2C9 (read-out: Ki, CYP2C9) it was 13.1 µM; in the series on CYP2C19 (read-out: Ki, CYP2C19), 6.3 µM; in the series on CYP2D6, 20.8 µM. Further, the “inhibition of CYP3A4” value in the series with CYP3A4 is given as “did not inhibited”.

Regarding `CC(C)C(NC(=O)c1nn(CCCCC(=O)O)c2ccccc12)C(N)=O` (stereo not shown) [AB-PINACA pentanoic acid], the serum level in series [1] is listed as 345 ng/mL.

Regarding `O=C(c1cccc2ccccc12)c1cn(CCCCCF)c2ccccc12` [AM-2201], the IC50 with UGT1A3 is 4.3 µM; with UGT2B7, 10 µM; in the series with CYP2C9 (read-out: IC50, CYP2C9) it was 3.9 µM; with CYP3A4 (read-out: IC50, CYP3A4), 4 µM.

Regarding `CCCCCn1nc(C(=O)NC23CC4CC(CC(C4)C2)C3)c2ccccc21` [APINACA, N-(1-adamantyl)-1-pentyl-1H-indazole-3-carboxamide], the “inhibition of transport activity of OCT1/2, OAT1/3, and OATP1B1/1B3” value in series [2] is reported as “did not inhibit”. The Ki in the series on CYP3A4 (setting [3]) is 4.5 µM; with UGT1A9, 5.9 µM. In the series on CYP3A4 (time-dependent inhibition), the “kinact, CYP3A4” value is 0.04686 min⁻¹. Also, the “kinact/Ki, CYP3A4” value with CYP3A4 (time-dependent inhibition) is 172 M⁻¹ s⁻¹.

For `CCc1ccc(C(=O)c2cn(CCCCCF)c3ccccc23)c2ccccc12` [EAM-2201], the Ki is 2.4 µM with UGT1A3 (competitive inhibition); 0.54 µM in the series with CYP2C8 (read-out: Ki, CYP2C8 (time-dependent), time-dependent inhibition); 3 µM with CYP2C9 (read-out: Ki, CYP2C9 (time-dependent), time-dependent inhibition); 3.8 µM in the series on CYP2C19 (read-out: Ki, CYP2C19 (time-dependent), time-dependent inhibition); 4.1 µM in the series with CYP3A4 (setting [3]). Moreover, in the series on CYP2C8 (time-dependent inhibition), the “kinact, CYP2C8” value is 0.0633 min⁻¹. Also, the “kinact, CYP2C9” value in the series on CYP2C9 (time-dependent inhibition) was 0.0462 min⁻¹. Also, in the series with CYP2C19 (time-dependent inhibition), the “kinact, CYP2C19” value is 0.0264 min⁻¹. In addition, the “kinact, CYP3A4” value in the series on CYP3A4 (time-dependent inhibition) was 0.0250 min⁻¹. In the series on CYP3A4 (time-dependent inhibition), the “kinact/Ki, CYP3A4” value is 115 M⁻¹ s⁻¹.

`Cc1ccc(C(=O)c2cn(CCCCCF)c3ccccc23)c2ccccc12` [MAM-2201]: the Ki was 5 µM in the series with UGT1A3; 5.6 µM with CYP2C9 (read-out: Ki, CYP2C9); 5.4 µM with CYP3A4 (read-out: Ki, CYP3A4).

Regarding `O=C(C(=O)c1ccccc1)c1ccccc1` [benzil], the “effect on formation of AB-PINACA carboxylic acid” value in the series on CES1 was “abolished”.

As for `CC[C@H]1OC(=O)[C@H](C)[C@@H](O[C@H]2C[C@@](C)(OC)[C@@H](O)[C@H](C)O2)[C@H](C)[C@@H](O[C@@H]2O[C@H](C)C[C@H](N(C)C)[C@H]2O)[C@](C)(OC)C[C@@H](C)C(=O)[C@H](C)[C@@H](O)[C@]1(C)O` [clarithromycin], the “inactivation efficiency (kinact/Ki), CYP3A4” value with CYP3A4 (representative clinical CYP3A4-mediated drug interactions) was 46.7 M⁻¹ s⁻¹.
